# Target: hAC2 (Homo sapiens, UniProt Q08462)
# Assay: stimulation of adenylate cyclase activity, HTRF cAMP assay
# Format: biochemical
# Conditions: 25 μM forskolin alone, no Gsα, no serum; 1 mM ATP, 2 mM MgCl2, pH 7.5
# Chain of hAC2 (Q08462 whole entry): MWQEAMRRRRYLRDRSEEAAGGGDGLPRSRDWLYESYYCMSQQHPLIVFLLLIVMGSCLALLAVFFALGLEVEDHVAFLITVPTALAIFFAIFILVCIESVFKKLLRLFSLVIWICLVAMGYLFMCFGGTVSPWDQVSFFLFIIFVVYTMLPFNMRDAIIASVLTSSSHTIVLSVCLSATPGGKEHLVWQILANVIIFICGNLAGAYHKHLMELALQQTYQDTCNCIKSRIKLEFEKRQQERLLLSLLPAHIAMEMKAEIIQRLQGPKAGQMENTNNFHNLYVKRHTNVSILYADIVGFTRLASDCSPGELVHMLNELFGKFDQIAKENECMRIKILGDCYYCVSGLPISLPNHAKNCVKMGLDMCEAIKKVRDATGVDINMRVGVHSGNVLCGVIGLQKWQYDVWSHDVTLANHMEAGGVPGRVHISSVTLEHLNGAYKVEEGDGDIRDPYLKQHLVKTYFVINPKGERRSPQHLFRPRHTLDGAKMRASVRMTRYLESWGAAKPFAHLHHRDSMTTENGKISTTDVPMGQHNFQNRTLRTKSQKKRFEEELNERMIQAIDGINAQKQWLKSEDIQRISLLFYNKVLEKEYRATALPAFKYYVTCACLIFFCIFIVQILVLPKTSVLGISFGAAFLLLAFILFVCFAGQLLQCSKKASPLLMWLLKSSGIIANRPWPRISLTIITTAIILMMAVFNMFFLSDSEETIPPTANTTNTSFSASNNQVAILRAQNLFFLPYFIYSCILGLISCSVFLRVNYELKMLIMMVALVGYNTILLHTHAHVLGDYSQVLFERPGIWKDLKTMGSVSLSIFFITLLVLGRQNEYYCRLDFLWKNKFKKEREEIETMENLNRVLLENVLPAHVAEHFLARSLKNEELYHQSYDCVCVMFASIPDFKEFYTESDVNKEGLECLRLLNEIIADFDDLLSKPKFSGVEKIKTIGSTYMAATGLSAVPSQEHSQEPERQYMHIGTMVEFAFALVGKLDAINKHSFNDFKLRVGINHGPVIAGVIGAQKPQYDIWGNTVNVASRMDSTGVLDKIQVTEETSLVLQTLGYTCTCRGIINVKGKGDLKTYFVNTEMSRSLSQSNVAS
compound,measurement,value
C=C[C@@]1(C)CC(=O)[C@]2(O)[C@@]3(C)[C@@H](O)CCC(C)(C)[C@@H]3[C@H](O)[C@H](OC(C)=O)[C@@]2(C)O1 [forskolin],fold stimulation at 25 μM,~ 2.4 fold

# From publication doi:10.1101/694877v2 (biorxiv, 2019)
